Measurements published in patent publication US20250154288A1, “CYTOTOXICITY TARGETING CHIMERAS FOR C-C CHEMOKINE RECEPTOR 2-EXPRESSING CELLS” (GLAXOSMITHKLINE INTELLECTUAL PROPERTY DEVELOPMENT LIMITED, priority 2022, published 2025).
Counter-ions that a name gives are not always drawn.

What was measured:
[1] = biological target: Anti-cotinine antibody (SEQ ID NO: 11 / SEQ ID NO: 12); experiment: Binding of Anti-Cotinine Antibody to ARM Compounds measured by Surface Plasmon Resonance (SPR); design: species or system rabbit variable region with human IgG1 Fc domain; settings: Biacore T200, 37° C., Kd = koff/kon, average if several runs
Procedure: Anti-cotinine antibodies having a heavy chain sequence of SEQ ID NO: 11 and a light chain sequence of SEQ ID NO: 12 (rabbit variable region with human IgG1 Fc domain containing a DE mutation (S239D/I332E)) were captured on one or more flow cells of a protein A sensor chip (Cytiva) using a Biacore T200 while reserving flow cell 1 as a reference. Following capture, a 3000 second wait step was included to reduce drift during compound analysis. ARM compounds of Formula (I) were then injected at 100 μL/min with 200 and 2000 second association and dissociation times. The entire experiment was run at 37° C. with running buffer containing 10 mM HEPES pH 7.4, 150 mM NaCl, 0.005% P20 and 1% DMSO. ARM compounds of Formula (I) were titrated with a top concentration of 200 nM using a 3-fold 5-point dilution series and a corresponding 5-injection buffer cycle was run for blank subtraction. Data were double referenced by subtracting the response of the reference flow cell from that of the antibody-containing flow cell and subsequently subtracting the referenced blank sensorgrams. Following compound analysis, the surface was regenerated using a 30 second injection of pH 1.5 glycine at a flow rate of 30 μL/min after which antibody was re-captured. The experiment was run using Biacore T200 control software and evaluated using Biacore T200 Evaluation software. Curves were fit with a 1:1 kinetic binding model to obtain kon(1/Ms), koff(1/s), Kd (M) determined as koff/kon, and residence time determined as 1/koff. (s).
Anti-cotinine antibody was tested for binding to ARMs compounds of Formula (I) of the invention in the above assay in or more experimental runs and the results are shown in Table 5 below. Affinity is reported as a pKd value. The pKd value is the negative log of the Kd value, wherein the Kd value is the dissociation constant measured in molar (M) as noted above. For compounds tested in more than one experimental run, the pKd value is reported as an average

[2] = tested on: endogenous target monocytes of human PBMC; experiment: PBMC Ex Vivo Depletion Assay (human PBMC monocyte depletion flow cytometry); format: cell-based; settings: monocyte depletion in human PBMC with anti-cotinine antibody; 18-24 hours incubation; read-out: Ex Vivo Depletion Assay pEC50 (converted)
Procedure: A human PBMC (peripheral blood mononuclear cells) monocyte depletion flow cytometry assay was developed to screen compounds in a 384-well plate format. This assay incorporated endogenous natural killer cells to deplete endogenous target monocytes.
To screen compounds in the human PBMC monocyte depletion flow cytometry assay, 11-point dose-response curves were made from 1 mM stocks in neat DMSO by serially diluting an ARM compound of Formula (I) four-fold into a 384-well plate row-wise. These serially diluted compounds were then stamped into a flat bottom polypropylene 384-well plate (Greiner Bio-One) at 100 nL/well. […]
After 18-24 hours incubation, 2 μL of 6.25 μg human FC block (BD Pharmingen) that was diluted in assay medium was added to the wells of the plate. […] Samples from the plate were run on BD FACS Canto II flow cytometer and data was analyzed using FlowJo software.
ARMs compounds of Formula (I) of the invention were tested for the ability to deplete monocytes in the above assay in one or more experimental runs and the results are shown in Table 3 below. […] The pEC50 value is the negative log of the EC50 value, wherein the EC50 value is the half maximal effective concentration measured in molar (M). For compounds tested in more than one experimental run, the pEC50 value is reported as an average or as the individual values measured

Structure (SMILES) | pKd of Antibody for ARM Compound of Formula (I) [1] | EC50 [2] [nM]
CO[C@@H]1COCC[C@@H]1N[C@@H]1CC[C@](CCC2CCN(C(=O)[C@H]3CC[C@H](NC(=O)CCCO[C@H]4CC[C@H](OCCNC(=O)[C@H]5CC(=O)N(C)[C@@H]5c5cccnc5)CC4)CC3)CC2)(C(=O)N2CCc3ncc(C(F)(F)F)cc3C2)C1 [Example 2, (2S,3S)—N-(2-(((1R,4S)-4-(4-(((1S,4R)-4-(4-(2-((1S,3R)-3-(((3S,4S)-3-Methoxytetrahydro-2H-pyran-4-yl)amino)-1-(3-(trifluoromethyl)-5,6,7,8-tetrahydro-1,6-naphthyridine-6-carbonyl)cyclopentyl)ethyl)piperidine-1-carbonyl)cyclohexyl)amino)-4-oxobutoxy)cyclohexyl)oxy)ethyl)-1-methyl-5-oxo-2-(pyridin-3-yl)pyrrolidine-3-carboxamide] | 9.2 | 
CO[C@@H]1COCC[C@@H]1N[C@@H]1CC[C@](CCCNC(=O)[C@H]2CC[C@H](NC(=O)CCCO[C@H]3CC[C@H](OCCNC(=O)[C@H]4CC(=O)N(C)[C@@H]4c4cccnc4)CC3)CC2)(C(=O)N2CCc3ncc(C(F)(F)F)cc3C2)C1 [Example 3, (2S,3S)-N-(2-(((1R,4S)-4-(4-(((1S,4R)-4-((3-((1S,3R)-3-(((3S,4S)-3-Methoxytetrahydro-2H-pyran-4-yl)amino)-1-(3-(trifluoromethyl)-5,6,7,8-tetrahydro-1,6-naphthyridine-6-carbonyl)cyclopentyl)propyl)carbamoyl)cyclohexyl)amino)-4-oxobutoxy)cyclohexyl)oxy)ethyl)-1-methyl-5-oxo-2-(pyridin-3-yl)pyrrolidine-3-carboxamide] | 9.1 | 
CO[C@@H]1COCC[C@@H]1N[C@@H]1CC[C@](CCCCNC(=O)[C@H]2CC[C@H](NC(=O)CCCO[C@H]3CC[C@H](OCCNC(=O)[C@H]4CC(=O)N(C)[C@@H]4c4cccnc4)CC3)CC2)(C(=O)N2CCc3ncc(C(F)(F)F)cc3C2)C1 [Example 7, (2S,3S)-N-(2-(((1R,4S)-4-(4-(((1S,4R)-4-((4-((1S,3R)-3-(((3S,4S)-3-Methoxytetrahydro-2H-pyran-4-yl)amino)-1-(3-(trifluoromethyl)-5,6,7,8-tetrahydro-1,6-naphthyridine-6-carbonyl)cyclopentyl)butyl)carbamoyl)cyclohexyl)amino)-4-oxobutoxy)cyclohexyl)oxy)ethyl)-1-methyl-5-oxo-2-(pyridin-3-yl)pyrrolidine-3-carboxamide] | 9.2 | 
CO[C@@H]1COCC[C@@H]1N[C@@H]1CC[C@](CCNC(=O)[C@H]2CC[C@H](NC(=O)CCCO[C@H]3CC[C@H](OCCNC(=O)[C@H]4CC(=O)N(C)[C@@H]4c4cccnc4)CC3)CC2)(C(=O)N2CCc3ncc(C(F)(F)F)cc3C2)C1 [Example 8, (2S,3S)-N-(2-(((1R,4S)-4-(4-(((1R,4R)-4-((2-((1R,3R)-3-(((3S,4S)-3-Methoxytetrahydro-2H-pyran-4-yl)amino)-1-(3-(trifluoromethyl)-5,6,7,8-tetrahydro-1,6-naphthyridine-6-carbonyl)cyclopentyl)ethyl)carbamoyl)cyclohexyl)amino)-4-oxobutoxy)cyclohexyl)oxy)ethyl)-1-methyl-5-oxo-2-(pyridin-3-yl)pyrrolidine-3-carboxamide] | 9.1 | 
CO[C@@H]1COCC[C@@H]1N[C@@H]1CC[C@](CCCCCNC(=O)[C@H]2CC[C@H](NC(=O)CCCO[C@H]3CC[C@H](OCCNC(=O)[C@H]4CC(=O)N(C)[C@@H]4c4cccnc4)CC3)CC2)(C(=O)N2CCc3ncc(C(F)(F)F)cc3C2)C1 [Example 9, (2S,3S)-N-(2-(((1R,4S)-4-(4-(((1S,4R)-4-((5-((1S,3R)-3-(((3S,4S)-3-Methoxytetrahydro-2H-pyran-4-yl)amino)-1-(3-(trifluoromethyl)-5,6,7,8-tetrahydro-1,6-naphthyridine-6-carbonyl)cyclopentyl)pentyl)carbamoyl)cyclohexyl)amino)-4-oxobutoxy)cyclohexyl)oxy)ethyl)-1-methyl-5-oxo-2-(pyridin-3-yl)pyrrolidine-3-carboxamide] | 9.2 | 
CO[C@@H]1COCC[C@@H]1N[C@@H]1CC[C@@](C(=O)N2Cc3cc(C(F)(F)F)cnc3[C@H](NC(=O)[C@H]3CC[C@H](NC(=O)CCCO[C@H]4CC[C@H](OCCNC(=O)[C@H]5CC(=O)N(C)[C@@H]5c5cccnc5)CC4)CC3)C2)(C(C)C)C1 [Example 14, (2S,3S)-N-(2-(((1R,4S)-4-(4-(((1R,4R)-4-(((R)-6-((1S,3R)-1-isopropyl-3-(((3S,4S)-3-methoxytetrahydro-2H-pyran-4-yl)amino)cyclopentane-1-carbonyl)-3-(trifluoromethyl)-5,6,7,8-tetrahydro-1,6-naphthyridin-8-yl)carbamoyl)cyclohexyl)amino)-4-oxobutoxy)cyclohexyl)oxy)ethyl)-1-methyl-5-oxo-2-(pyridin-3-yl)pyrrolidine-3-carboxamide, 3Formic acid salt] | 9.0 | 
CO[C@@H]1COCC[C@@H]1N[C@@H]1CC[C@@](C(=O)N2Cc3cc(C(F)(F)F)cnc3[C@@H](NC(=O)[C@H]3CC[C@H](NC(=O)CCCO[C@H]4CC[C@H](OCCNC(=O)[C@H]5CC(=O)N(C)[C@@H]5c5cccnc5)CC4)CC3)C2)(C(C)C)C1 [Example 15, (2S,3S)-N-(2-(((1R,4S)-4-(4-(((1S,4R)-4-(((S)-6-((1S,3R)-1-isopropyl-3-(((3S,4S)-3-methoxytetrahydro-2H-pyran-4-yl)amino)cyclopentane-1-carbonyl)-3-(trifluoromethyl)-5,6,7,8-tetrahydro-1,6-naphthyridin-8-yl)carbamoyl)cyclohexyl)amino)-4-oxobutoxy)cyclohexyl)oxy)ethyl)-1-methyl-5-oxo-2-(pyridin-3-yl)pyrrolidine-3-carboxamide] | 9.0 | 
CO[C@@H]1COCC[C@@H]1N[C@@H]1CC[C@@](C(=O)N2CCc3nc(CCCCOc4cccc(C(=O)NCCOCCOCCOCCOCCOCCOCCOCCOCCOCCNC(=O)[C@H]5CC(=O)N(C)[C@@H]5c5cccnc5)c4)c(C(F)(F)F)cc3C2)(C(C)C)C1 [Example 22, (2S,3S)—N-(1-(3-(4-(6-((1S,3R)-1-Isopropyl-3-(((3S,4S)-3-methoxytetrahydro-2H-pyran-4-yl)amino)cyclopentane-1-carbonyl)-3-(trifluoromethyl)-5,6,7,8-tetrahydro-1,6-naphthyridin-2-yl)butoxy)phenyl)-1-oxo-5,8,11,14,17,20,23,26,29-nonaoxa-2-azahentriacontan-31-yl)-1-methyl-5-oxo-2-(pyridin-3-yl)pyrrolidine-3-carboxamide] | 9.3 | 0.794
